The results in this text go back to patent publication US12673975B2, “Cyclic peptide, cell scaffold material, cell separating material, and medium” (FUJIFILM Corporation, priority 2019, dated 2026).

One data set has as its target human integrin αvβ5 (Homo sapiens, UniProt P06756+P18084). Briefly: Evaluation of integrin binding property (surface plasmon resonance, Biacore 3000, immobilized cyclic peptide). A digest of the protocol: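 SPR with cyclic peptide amine-coupled via EDC/NHS to a CM5 chip, blank channel as reference. Integrin αvβ5 at 30, 100, 300 and 1,000 nM injected 10 min at 25 °C in HEPES buffer pH 7.4 with 5 mM MgCl2, 30 min buffer flow, EDTA regeneration; Kd from reference-subtracted signals, graded by category.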
(Surface plasmon resonance follows binding to a sensor surface in real time, without labels.)

A short description of data set [1]: Evaluation of molecule stability (alkali treatment, residual rate by LC/MS). The data set is classed as physicochemical. As to conditions: for Performance evaluation: Stability (residual rate of cyclic peptide after alkali treatment): 500 μM peptide aqueous solution plus equivalent of 1 M sodium hydroxide, 15° C., 3 hours, LC/MS peak area; for Stability (molecule stability, residual rate of the cyclic peptide rank): alkali treatment, residual rate by LC/MS. A digest of the protocol:
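500 μM aqueous cyclic peptide mixed with an equal volume of 1 M NaOH and held 3 h at 15 °C. Residual rate is total LC/MS peak area after treatment relative to untreated (100%), using a C18 column, pH 3 ammonium formate/acetonitrile gradient, 45 °C, ESI±.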

Where [2] appears, read: SPR, 25° C., HEPES buffer with 5 mM magnesium chloride, integrin 30-1,000 nM, read-out: Performance evaluation: Binding activity (dissociation constant between the cyclic peptide and human integrin αvβ5).
Setting [3] is: surface plasmon resonance, immobilized cyclic peptide, human integrin αvβ5, read-out: Binding activity (integrin binding property, dissociation constant rank).

SMILES strings stand for the structures. Read-outs that look alike come from different tables or passages of the source. Starred links: 1 amine or outer side, 2 acyl side, 3 side chain; linkers in the order of their positions; H or OH if unused. Positions of bridges follow the written chain, without caps; N, C: chain ends. Non-standard residues stand in square brackets, D forms with d. Residues, ends and D or L forms follow the SMILES beside them. hCys = N[C@@H](CCS)C(=O)O; Dab = NCC[C@H](N)C(=O)O; Dap = NC[C@H](N)C(=O)O; X1 = O=C(C[*:2])[*:1]; X2 = O=C(C[*:1])[*:2] Some results are limits rather than exact numbers.

Sequence of human integrin αvβ5 (P06756 31-1048): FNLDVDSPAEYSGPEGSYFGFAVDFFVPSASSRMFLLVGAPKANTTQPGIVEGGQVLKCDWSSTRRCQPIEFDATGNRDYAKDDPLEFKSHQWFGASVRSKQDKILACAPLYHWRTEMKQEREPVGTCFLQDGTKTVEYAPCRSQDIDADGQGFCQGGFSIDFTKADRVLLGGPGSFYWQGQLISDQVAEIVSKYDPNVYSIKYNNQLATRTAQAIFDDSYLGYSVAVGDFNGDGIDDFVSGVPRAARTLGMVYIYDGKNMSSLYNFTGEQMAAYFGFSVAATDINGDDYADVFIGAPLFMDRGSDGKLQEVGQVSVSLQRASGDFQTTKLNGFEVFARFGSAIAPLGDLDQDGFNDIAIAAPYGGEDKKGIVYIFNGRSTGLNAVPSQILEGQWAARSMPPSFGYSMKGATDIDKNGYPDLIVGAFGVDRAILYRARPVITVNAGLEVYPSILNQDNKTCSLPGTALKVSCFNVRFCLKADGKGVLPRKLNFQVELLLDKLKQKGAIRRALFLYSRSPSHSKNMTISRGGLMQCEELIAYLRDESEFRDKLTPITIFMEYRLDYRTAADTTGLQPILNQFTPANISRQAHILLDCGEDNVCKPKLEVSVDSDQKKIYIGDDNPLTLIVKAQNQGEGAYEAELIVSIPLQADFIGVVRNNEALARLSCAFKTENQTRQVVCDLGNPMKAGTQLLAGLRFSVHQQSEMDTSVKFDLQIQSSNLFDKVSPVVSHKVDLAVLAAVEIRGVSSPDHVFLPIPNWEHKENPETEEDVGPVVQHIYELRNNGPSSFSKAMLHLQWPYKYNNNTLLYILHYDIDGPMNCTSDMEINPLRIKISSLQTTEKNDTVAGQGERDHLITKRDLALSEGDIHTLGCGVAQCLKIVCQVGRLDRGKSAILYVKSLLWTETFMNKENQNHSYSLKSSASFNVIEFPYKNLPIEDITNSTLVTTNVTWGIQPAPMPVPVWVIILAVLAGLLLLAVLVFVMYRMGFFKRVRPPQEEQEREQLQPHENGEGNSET
Sequence of human integrin αvβ5 (P18084 24-799): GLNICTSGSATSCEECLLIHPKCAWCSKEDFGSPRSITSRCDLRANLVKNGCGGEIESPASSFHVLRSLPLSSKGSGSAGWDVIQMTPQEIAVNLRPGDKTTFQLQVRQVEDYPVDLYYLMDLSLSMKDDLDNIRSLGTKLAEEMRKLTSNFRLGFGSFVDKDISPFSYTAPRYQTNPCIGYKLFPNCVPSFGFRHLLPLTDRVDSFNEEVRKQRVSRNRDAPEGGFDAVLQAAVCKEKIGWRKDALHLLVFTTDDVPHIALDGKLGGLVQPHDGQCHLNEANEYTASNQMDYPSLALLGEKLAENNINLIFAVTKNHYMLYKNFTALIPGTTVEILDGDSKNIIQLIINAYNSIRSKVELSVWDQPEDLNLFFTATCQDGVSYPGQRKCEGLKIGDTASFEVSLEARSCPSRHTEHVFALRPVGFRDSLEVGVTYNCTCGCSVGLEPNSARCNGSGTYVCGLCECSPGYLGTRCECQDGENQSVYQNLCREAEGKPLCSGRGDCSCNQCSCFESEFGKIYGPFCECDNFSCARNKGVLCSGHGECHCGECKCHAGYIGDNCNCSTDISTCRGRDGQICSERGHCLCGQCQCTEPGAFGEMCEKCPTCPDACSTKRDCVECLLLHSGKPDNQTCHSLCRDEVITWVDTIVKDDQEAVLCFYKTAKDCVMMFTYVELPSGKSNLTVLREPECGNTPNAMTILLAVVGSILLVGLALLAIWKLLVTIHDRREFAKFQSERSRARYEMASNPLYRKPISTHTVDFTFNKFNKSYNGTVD

For `CC[C@H](C)[C@@H]1NC(=O)[C@@H](NC(=O)CNC(=O)[C@H](CCCCN)NC(=O)[C@H](CCCCN)NC(=O)[C@@H](N)CCCCN)CCSCC(=O)NCC[C@@H](C(=O)N[C@@H](C)C(=O)O)NC(=O)[C@H](CCCNC(=N)N)NC(=O)[C@H](Cc2ccccc2)NC(=O)[C@H](CC(N)=O)NC(=O)[C@H](CC(=O)O)NC(=O)CNC(=O)[C@H](CCCNC(=N)N)NC(=O)[C@@H]2CCCN2C1=O` [Cyclic peptide 1, KKKG-(Hcy)-IPRGDNFR(Dab(acetyl))A] (H-KKKG[hCys]IPRGDNFR[Dab]A-OH; linker 5-14 via X2), the Kd on human integrin αvβ5 (setting [2]) was less than 0.05 µM. Besides, the “Performance evaluation: Stability (residual rate of cyclic peptide after alkali treatment)” value in data set [1] is listed as “A (The residual rate of the cyclic peptide is 70% or more.)”.
`CC(C)[C@@H]1NC(=O)[C@@H](NC(=O)[C@H](C)NC(=O)[C@H](CCCCN)NC(=O)[C@H](CCCCN)NC(=O)[C@@H](N)CCCCN)CCSCC(=O)NCC[C@@H](C(=O)N[C@@H](C)C(=O)O)NC(=O)[C@H](C)NC(=O)[C@H](Cc2ccccc2)NC(=O)[C@H](CO)NC(=O)[C@H](CC(=O)O)NC(=O)CNC(=O)[C@H](CCCNC(=N)N)NC(=O)[C@@H]2CCCN2C1=O` [Cyclic peptide 96, KKKA-(Hcy)-VPRGDSFA(Dab(acetyl))A] (H-KKKA[hCys]VPRGDSFA[Dab]A-OH; linker 5-14 via X2): at human integrin αvβ5 (setting [2]), the Kd is less than 0.05 µM. Also, the “Performance evaluation: Stability (residual rate of cyclic peptide after alkali treatment)” value in data set [1] is “A (The residual rate of the cyclic peptide is 70% or more.)”.
`CC[C@H](C)[C@@H]1NC(=O)[C@@H](NC(=O)[C@H](CCCCN)NC(=O)[C@H](CCCCN)NC(=O)[C@@H](N)CCCCN)CNC(=O)CSCC[C@@H](C(=O)O)NC(=O)[C@H](CCCNC(=N)N)NC(=O)[C@H](Cc2ccccc2)NC(=O)[C@H](CC(N)=O)NC(=O)[C@H](CC(=O)O)NC(=O)CNC(=O)[C@H](CCCNC(=N)N)NC(=O)[C@@H]2CCCN2C1=O` [Cyclic peptide 12, KKK(Dap(acetyl))IPRGDNFR-(Hcy)] (H-KKK[Dap]IPRGDNFR[hCys]-OH; linker 4-13 via X1): at human integrin αvβ5 (setting [2]), the Kd lay within 0.05 to 0.1 µM. In data set [1], the “Performance evaluation: Stability (residual rate of cyclic peptide after alkali treatment)” value was “B (The residual rate of the cyclic peptide is 50% or more and less than 70%.)”.
Consider `CC[C@H](C)[C@@H]1NC(=O)[C@H](C)NC(=O)[C@@H](NC(=O)CNC(=O)[C@H](CCCCN)NC(=O)[C@H](CCCCN)NC(=O)[C@@H](N)CCCCN)CCSCC(=O)NCC[C@@H](C(=O)N[C@@H](C)C(=O)O)NC(=O)[C@H](C)NC(=O)[C@H](CCCNC(=N)N)NC(=O)[C@H](Cc2ccccc2)NC(=O)[C@H]([C@@H](C)O)NC(=O)[C@H](CC(=O)O)NC(=O)CNC(=O)[C@H](CCCNC(=N)N)NC(=O)[C@@H]2CCCN2C1=O` [Cyclic peptide 67, KKKG-(Hcy)-AIPRGDTFRA(Dab(acetyl))A] (H-KKKG[hCys]AIPRGDTFRA[Dab]A-OH; linker 5-16 via X2), for which the Kd on human integrin αvβ5 (setting [2]) is less than 0.05 µM. In data set [1], the “Performance evaluation: Stability (residual rate of cyclic peptide after alkali treatment)” value is “A (The residual rate of the cyclic peptide is 70% or more.)”.
On to `CC[C@H](C)[C@@H]1NC(=O)[C@@H](NC(=O)[C@H](CCCCN)NC(=O)[C@H](CCCCN)NC(=O)[C@@H](N)CCCCN)CCSCC(=O)NCC[C@@H](C(=O)O)NC(=O)[C@H](C)NC(=O)[C@H](Cc2ccccc2)NC(=O)[C@H]([C@@H](C)O)NC(=O)[C@H](CC(=O)O)NC(=O)CNC(=O)[C@H](CCCNC(=N)N)NC(=O)[C@@H]2CCCN2C1=O` [Cyclic peptide 62, KKK-(Hcy)-IPRGDTFA(Dab(acetyl))] (H-KKK[hCys]IPRGDTFA[Dab]-OH; linker 4-13 via X2), for which the Kd on human integrin αvβ5 (setting [2]) is less than 0.05 µM. Also, the “Performance evaluation: Stability (residual rate of cyclic peptide after alkali treatment)” value in data set [1] is listed as “A (The residual rate of the cyclic peptide is 70% or more.)”.
As to `CC[C@H](C)[C@@H]1NC(=O)[C@@H](NC(=O)[C@H](C)NC(=O)[C@H](CCCCN)NC(=O)[C@H](CCCCN)NC(=O)[C@@H](N)CCCCN)CCSCC(=O)NCC[C@@H](C(=O)N[C@@H](C)C(=O)O)NC(=O)[C@H](CCCNC(=N)N)NC(=O)[C@H](Cc2ccccc2)NC(=O)[C@H](CC(N)=O)NC(=O)[C@H](CC(=O)O)NC(=O)CNC(=O)[C@H](CCCNC(=N)N)NC(=O)[C@@H]2CCCN2C1=O` [Cyclic peptide 2, KKKA-(Hcy)-IPRGDNFR(Dab(acetyl))A] (H-KKKA[hCys]IPRGDNFR[Dab]A-OH; linker 5-14 via X2), on human integrin αvβ5 (setting [2]), the Kd is less than 0.05 µM. The “Performance evaluation: Stability (residual rate of cyclic peptide after alkali treatment)” value in data set [1] is recorded as “A (The residual rate of the cyclic peptide is 70% or more.)”.
Taken in the same sequence, the figures for `C[C@H](NC(=O)[C@@H]1CCNC(=O)CSCC[C@H](NC(=O)CNC(=O)[C@H](CCCCN)NC(=O)[C@H](CCCCN)NC(=O)[C@@H](N)CCCCN)C(=O)N2CCC[C@H]2C(=O)N[C@@H](CCCNC(=N)N)C(=O)NCC(=O)N[C@@H](CC(=O)O)C(=O)N[C@@H](CC(N)=O)C(=O)N[C@@H](Cc2ccccc2)C(=O)N[C@@H](CCCNC(=N)N)C(=O)N1)C(=O)O` [Cyclic peptide 8, KKKG-(Hcy)-PRGDNFR(Dab(acetyl))A] (H-KKKG[hCys]PRGDNFR[Dab]A-OH; linker 5-13 via X2) were 0.05 to 0.1 µM and “A (The residual rate of the cyclic peptide is 70% or more.)”.
Consider `CC[C@H](C)[C@@H]1NC(=O)[C@@H](NC(=O)[C@H](C)NC(=O)[C@H](CCCCN)NC(=O)[C@H](CCCCN)NC(=O)[C@@H](N)CCCCN)CCSCC(=O)NCC[C@@H](C(=O)N[C@@H](C)C(=O)O)NC(=O)[C@H](CCCNC(=N)N)NC(=O)[C@@H]2CCCN2C(=O)[C@H]([C@@H](C)O)NC(=O)[C@H](CC(=O)O)NC(=O)CNC(=O)[C@H](CCCNC(=N)N)NC(=O)[C@@H]2CCCN2C1=O` [Cyclic peptide 80, KKKA-(Hcy)-IPRGDTPR(Dab(acetyl))A] (H-KKKA[hCys]IPRGDTPR[Dab]A-OH; linker 5-14 via X2), for which, at human integrin αvβ5 (setting [2]), the Kd fell in the range of 0.05 to 0.1 µM. Also, the “Performance evaluation: Stability (residual rate of cyclic peptide after alkali treatment)” value in data set [1] was “A (The residual rate of the cyclic peptide is 70% or more.)”.
Consider `CC[C@H](C)[C@@H]1NC(=O)[C@H](C)NC(=O)[C@@H](NC(=O)CNC(=O)[C@H](CCCCN)NC(=O)[C@H](CCCCN)NC(=O)[C@@H](N)CCCCN)CCSCC(=O)NCC[C@@H](C(=O)N[C@@H](C)C(=O)O)NC(=O)[C@H](C)NC(=O)[C@H](CCCNC(=N)N)NC(=O)[C@H](Cc2ccccc2)NC(=O)[C@H](CC(N)=O)NC(=O)[C@H](CC(=O)O)NC(=O)CNC(=O)[C@H](CCCNC(=N)N)NC(=O)[C@@H]2CCCN2C1=O` [Cyclic peptide 20, KKKG-(Hcy)-AIPRGDNFRA(Dab(acetyl))A] (H-KKKG[hCys]AIPRGDNFRA[Dab]A-OH; linker 5-16 via X2), for which, on human integrin αvβ5 (setting [2]), the Kd lay in the range of 0.05 to 0.1 µM. Also, the “Performance evaluation: Stability (residual rate of cyclic peptide after alkali treatment)” value in data set [1] is reported as “A (The residual rate of the cyclic peptide is 70% or more.)”.
As for `CC[C@H](C)[C@@H]1NC(=O)[C@@H](NC(=O)[C@H](CCCCN)NC(=O)[C@H](CCCCN)NC(=O)[C@@H](N)CCCCN)CCSCC(=O)NCC[C@@H](C(=O)O)NC(=O)[C@H](Cc2ccccc2)NC(=O)[C@H](C(C)C)NC(=O)[C@H](CC(=O)O)NC(=O)CNC(=O)[C@H](CCCNC(=N)N)NC(=O)[C@@H]2CCCN2C1=O` [Cyclic peptide 65, KKK-(Hcy)-IPRGDVF(Dab(acetyl))] (H-KKK[hCys]IPRGDVF[Dab]-OH; linker 4-12 via X2), the Kd at human integrin αvβ5 (setting [2]) is 0.05 to 0.1 µM. Moreover, the “Performance evaluation: Stability (residual rate of cyclic peptide after alkali treatment)” value in data set [1] was “A (The residual rate of the cyclic peptide is 70% or more.)”.
For the compound `CC(C)[C@@H]1NC(=O)[C@H](CC(=O)O)NC(=O)CNC(=O)[C@H](CCCNC(=N)N)NC(=O)[C@H]([C@@H](C)O)NC(=O)[C@H](C(C)C)NC(=O)[C@@H](NC(=O)[C@H](C)NC(=O)[C@H](CCCCN)NC(=O)[C@H](CCCCN)NC(=O)[C@@H](N)CCCCN)CCSCC(=O)NCC[C@@H](C(=O)N[C@@H](C)C(=O)O)NC(=O)[C@H]([C@@H](C)O)NC(=O)[C@H](Cc2ccccc2)NC1=O` [Cyclic peptide 113, KKKA-(Hcy)-VTRGDVFT(Dab(acetyl))A] (H-KKKA[hCys]VTRGDVFT[Dab]A-OH; linker 5-14 via X2), the Kd on human integrin αvβ5 (setting [3]) lay within 0.05 to 0.1 µM. For the same compound, the “Stability (molecule stability, residual rate of the cyclic peptide rank)” value in data set [1] is listed as “A (The residual rate of the cyclic peptide is 70% or more.)”.
Turning to `CC[C@H](C)[C@@H]1NC(=O)[C@@H](NC(=O)[C@H](CCCCN)NC(=O)[C@H](CCCCN)NC(=O)[C@@H](N)CCCCN)CCSCC(=O)NCC[C@@H](C(=O)N[C@@H](C)C(=O)O)NC(=O)[C@H](C)NC(=O)[C@H](C)NC(=O)[C@H](CCCNC(=N)N)NC(=O)[C@H](Cc2ccccc2)NC(=O)[C@H](CC(N)=O)NC(=O)[C@H](CC(=O)O)NC(=O)CNC(=O)[C@H](CCCNC(=N)N)NC(=O)[C@@H]2CCCN2C1=O` [Cyclic peptide 19, KKK-(Hcy)-IPRGDNFRAA(Dab(acetyl))A] (H-KKK[hCys]IPRGDNFRAA[Dab]A-OH; linker 4-15 via X2), at human integrin αvβ5 (setting [2]), the Kd was less than 0.05 µM. In data set [1], the “Performance evaluation: Stability (residual rate of cyclic peptide after alkali treatment)” value is given as “A (The residual rate of the cyclic peptide is 70% or more.)”.
Regarding `CC(C)[C@@H]1NC(=O)[C@@H](NC(=O)[C@H](C)NC(=O)[C@H](CCCCN)NC(=O)[C@H](CCCCN)NC(=O)[C@@H](N)CCCCN)CCSCC(=O)NCC[C@@H](C(=O)O)NC(=O)[C@H](C)NC(=O)[C@H](Cc2ccccc2)NC(=O)[C@H]([C@@H](C)O)NC(=O)[C@H](CC(=O)O)NC(=O)CNC(=O)[C@H](CCCNC(=N)N)NC(=O)[C@@H]2CCCN2C1=O` [Cyclic peptide 164, KKKA-(Hcy)-VPRGDTFA(Dab(acetyl))] (H-KKKA[hCys]VPRGDTFA[Dab]-OH; linker 5-14 via X2), the Kd on human integrin αvβ5 (setting [3]) is less than 0.05 µM. In data set [1], the “Stability (molecule stability, residual rate of the cyclic peptide rank)” value is “A (The residual rate of the cyclic peptide is 70% or more.)”.
